Measurements taken from paper PMC12040169 (PLOS Biology, 2025).

Assay: in vitro
Conditions: human, hela cells, % viability

Structure (SMILES) | viability at 28.5 h, 10 µM
COc1cc(C=O)ccc1Oc1nnnn1-c1ccc(C(=O)O)cc1 [CBK267071] | 95.5%
CCSc1nnc(NC(=O)c2cnc(SC)nc2CC)s1 [CBK291250] | 101%
O=C(O)COc1ccc(C=C2C(=O)c3ccccc3C2=O)cc1Cl [CBK263857] | 87.3%
Cc1c(C(=O)NC2CCN(c3ncccc3C#N)CC2)ccn1C [CBK307681] | 103%
COc1ccc(C(NC(=O)C2CCN(C(=O)Oc3ccccc3)CC2)c2ccccc2C)cn1 (stereo not drawn) [CBK059715] | 91.1%
O=C(Nc1ccno1)Nc1ccc(Cl)cc1Cl [CBK057809] | 94.6%
COc1cc(C(F)(F)F)c(-c2ncn[nH]2)cn1 [CBK006362] | 101%
COC(=O)c1cc(C#N)c(=O)n(CC(O)COc2ccccc2)c1 (stereo not drawn) [CBK304991] | 99.3%
CC(C(=O)NC1(C#N)CCCCC1)N1CCOC(Cn2cccn2)C1 (stereo not drawn) [CBK305337] | 88.9%
O=C1Nc2cc(Cl)ccc2C(=O)N2CCN(C(=O)C3CCCCC3)C[C@H]12 [CBK289586] | 87.1%
CC(C)CCCC(=O)n1c(=O)n(CCc2c[nH]c3ccccc23)c2ccccc21 [CBK106513] | 89.2%
CN1CCC(COC(=O)Nc2ccc3cc[nH]c3c2)CC1 [CBK200130] | 98.7%
O=C(c1ccccc1)N1C[C@H](c2ccsc2)[C@H]2CN(Cc3cccs3)CC[C@H]21 [CBK285623] | 95.8%
COC(=O)[C@@H](C)NC(=O)[C@@H]1CN(C(=O)c2cccc(F)c2)CCN1C(C)=O [CBK289620] | 91.3%
Cc1nn(C)c(C)c1CN(C)C(=O)C(C)Cn1cc(Cl)cn1 (stereo not drawn) [CBK282187] | 92.8%
O=C(c1ccc(F)cc1F)N1CCC(O)(c2ccccn2)CC1 [CBK283671] | 107%
Cc1ccc(CNC(Cc2c[nH]c3ccccc23)C(=O)O)cc1 (stereo not drawn) [CBK287145] | 106%
O=C(C1CCCC1)N1CCCc2cc(C(O)CN3CCCC3)ccc21 (stereo not drawn) [CBK282145] | 94.2%
CC1CN(c2nccn(CCOc3ccc(Br)cc3)c2=O)CCN1 (stereo not drawn) [CBK028596T] | 94.2%
Cc1cc2c(s1)c1cnn(Cc3ccncc3)c(=O)c1n2C [CBK284188] | 86.4%
COc1ccccc1OCC(=O)Nc1cc(C)nc2ccccc12 [CBK122728] | 97.3%
Cn1ncc(Cl)c1C1CCCCCN1C(=O)c1cc(C2CC2)on1 (stereo not drawn) [CBK284973] | 102%

Structure (SMILES) | viability at 28.5 h, 10 µM
COc1cccc(NC(=O)N2CCN3C(=O)[C@H](CC4CCCCC4)NC(=O)[C@H]3C2)c1 [CBK289615] | 117%
O=C(CNC(=O)c1ccccc1Cl)Nc1ccc(Br)cc1C(=O)c1ccccc1 [CBK087691] | 101%
CCOC(=O)Cn1nc(CC)n2c(cc3ccsc32)c1=O [CBK284133] | 83.9%
CCSc1cc(Nc2nc(Cl)cc(SCC)n2)nc(N)n1 [CBK005164] | 92.6%
CCOC(=O)c1noc2nc(C)n(Cc3nc(-c4ccccc4)oc3C)c(=O)c12 [CBK294400] | 89.6%
CSc1nnc(CC2CCN(C(=O)c3ccccc3C(C)=O)CC2)n1C [CBK306720] | 111%
C[C@@H](Nc1cncc(-c2ccc(F)cc2F)n1)c1ccccc1 [CBK065676] | 87%
CN(C)CCCNC(=O)C1CCCN(c2nc3c(-c4ccccc4)csc3c(=O)[nH]2)C1 (stereo not drawn) [CBK215504] | 94.6%
CC1c2ccsc2CCN1C(=O)COc1ccc(Br)cc1 (stereo not drawn) [CBK304999] | 98%
Cn1c(SCC(=O)Nc2cccc(C(=O)O)c2)nnc1-c1ccccc1 [CBK300479] | 96.1%
Cc1c(C(=O)NCc2ccccn2)nnn1-c1cccc(C(F)(F)F)c1 [CBK107395] | 92.9%
O=C(CC1CC1)N1CCCC2(CCN(C(=O)c3cc(F)c(F)cc3F)C2)C1 (stereo not drawn) [CBK131531] | 96.7%
NC(=O)COc1cccc(/C=C2/SC(Nc3cccc(C(=O)O)c3)=NC2=O)c1 [CBK265027] | 104%
Cc1ccn2cc(CNC(=O)N(C)CCc3scnc3C)nc2c1 [CBK307379] | 87.5%
Cc1cccc(C2(O)CCN(C(=O)c3ccc4nc(C)[nH]c4c3)CC2)c1 [CBK283299] | 102%
O=S(=O)(Nc1cccc(C(F)(F)F)c1)c1ccc(OC(F)(F)F)cc1 [CBK043554] | 86.3%
O=C(CSc1nc2ccccc2s1)OCc1ccc([N+](=O)[O-])cc1 [CBK262547] | 91.1%
COc1ccc(-c2nn(CCC(=O)O)cc2/C=C2\SC(=S)NC2=O)cc1OC [CBK265318] | 108%
CC1CC(C)CN(CCCNS(=O)(=O)c2ccc3c(c2)oc(=O)n3C)C1 (stereo not drawn) [CBK268695] | 104%
Cc1cc(Cl)c(S(=O)(=O)Nc2ccc(C#N)cc2)cc1OCC(N)=O [CBK266560] | 112%
COc1cc(OCc2ccccc2)ccc1CN1CCN(Cc2ccccc2)CC1 [CBK074766] | 88.1%
Nc1nc(C2CC(N)C2)cc(N2CCC(Oc3ccccc3Cl)CC2)n1 (stereo not drawn) [CBK307356] | 88.6%

Structure (SMILES) | viability at 28.5 h, 10 µM
O=C(c1cccc2ncccc12)N1CC[C@@H](c2ccccc2)[C@H](O)C1 [CBK283716] | 84.3%
Cc1c(-c2ccccc2)n[nH]c1C(=O)NCCCc1ccccn1 [CBK282445] | 89%
O=C(Cn1cnc2c(c1=O)CCCC2)Nc1ccc(Cl)c(Cl)c1 [CBK304655] | 102%
CCN1C(=O)c2ccccc2C(=O)[C@@]2(C)CN(C(C)C)C[C@@H]12 [CBK283480] | 109%
CC(C)[C@H]1CN(Cc2ccco2)CCN1C(=O)NCc1ccccc1 [CBK284274] | 99.6%
OC(CN1CCC(O)(c2ccc(F)cc2)CC1)c1ccc(F)cc1 (stereo not drawn) [CBK282510] | 79%
Cc1nc(C2CC(O)C2)cc(N2CCC(C(=O)N3CCOCC3)CC2)n1 (stereo not drawn) [CBK307675] | 102%
CCc1c(C(=O)N(C)Cc2cnn(C(C)C)c2)[nH]c2ccccc12 [CBK307501] | 92.9%
CC(=O)Nc1ccc2nc(NC(=O)c3ccc4c(c3)OCCO4)sc2c1 [CBK287571] | 101%
CCCNC(=O)c1sc(Nc2ccc(Cl)cn2)nc1C [CBK287850] | 98.4%
Cc1[nH]c(=O)[nH]c(=O)c1S(=O)(=O)N1CCOCC1 [CBK261060] | 96.1%
O=C(Nc1ccc(Br)cc1)c1c(O)n2c3c(cccc3c1=O)CCC2 [CBK291207] | 103%
Cn1nnnc1SCCNC(=O)Nc1cccc(N2CCOC2=O)c1 [CBK306593] | 84.4%
O=C(c1ccccc1)c1nnsc1-c1ccccc1 [CBK008193] | 97%
Cc1ccc(S(=O)(=O)Nc2ccc(N3C[C@@H](C)N[C@@H](C)C3)c3ccccc23)cc1 [CBK001486C] | 87.8%
Cc1ccc(C)c(N2CCN(CCCNC(=S)Nc3ccc(Cl)cc3Cl)CC2)c1 [CBK267951] | 99.6%
O=C(Nc1cccc(-c2ccc3nncn3n2)c1)c1ccc(F)cc1 [CBK287682] | 87.1%
O=C1Nc2ccc(-c3ccccc3F)cc2C(=O)N2CCN(C(=O)c3cccnc3)C[C@H]12 [CBK289591] | 111%
COc1cc2c(cc1OC)CN(CCN1CCCCC1)CC2 [CBK126439] | 101%
CC(=O)Nc1ccc([C@@H](O)[C@H]2COCC(=O)N2C)cc1 [CBK289059] | 97.7%
COc1cccc(CN2CCCC3(C2)c2[nH]c4ccccc4c2CCN3C(C)=O)c1 (stereo not drawn) [CBK039634] | 86.4%
CC(C)(C(=O)N1CCC(C(=O)NCCc2c[nH]c3ccccc23)C1)c1ccc(F)cc1 (stereo not drawn) [CBK286034] | 102%

Structure (SMILES) | viability at 28.5 h, 10 µM
CNS(=O)(=O)c1cccc2c1CCN(C(=O)NC1CCOC1)C2 (stereo not drawn) [CBK306172] | 106%
CCCn1c(SCC(=O)N(C)Cc2ccc(OCC)cc2)n[nH]c1=O [CBK295132] | 90%
CC1=C[C@@H](CNC(=O)NC(C)C)[C@H](C(C)C)C[C@H]1CC(=O)N1CCN(C)CC1 [CBK289047] | 100%
COc1cc(/C=N/NC(=O)CCN2CCN(C)CC2)cc2c1OCO2 [CBK261504] | 116%
COc1ccc(CN2CCN(C(=O)NS(=O)(=O)c3ccc(C)cc3)CC2)cc1F [CBK297156] | 98.5%
CC1CCN(Cc2ccc(-c3ccc(CNC(=O)c4ccc5c(c4)OC(F)(F)O5)s3)cc2)CC1 [CBK166113] | 107%
N#Cc1c(NC(=O)CSc2ncnc3c2cnn3-c2ccccc2)sc2c1CCCC2 [CBK269478] | 92.6%
COc1ccc(OCC(=O)N/N=C/c2ccc([N+](=O)[O-])s2)c(I)c1 [CBK261374] | 93.1%
OCCN1CCN(c2ccc(-c3cc(C(F)(F)F)cc(C(F)(F)F)c3)cn2)CC1 [CBK036941] | 99%
CCOC(=O)c1c(NC(=O)CSc2nncn2C)sc(C)c1C [CBK267970] | 89.8%
CCNc1nc2c(c(=O)[nH]c(=O)n2C)n1CCCc1ccccc1 [CBK269243] | 94.6%
O=C(Nc1ccc(F)cc1)c1sccc1NS(=O)(=O)Cc1ccccc1 [CBK004574] | 106%
COc1ccc(-c2ccc3c(c2)C(=O)N2CC[C@H](N)C[C@H]2C(=O)N3)c(OC)c1 [CBK289560] | 104%
Cc1nn(C)c(Cl)c1S(=O)(=O)Nc1cc(N2CCN(C(=O)OC(C)(C)C)CC2)c2occc2c1 [CBK067787] | 95.8%
CCN(CC)C1CCN(C(=O)Nc2cc(NC(C)=O)ccc2F)C1 (stereo not drawn) [CBK305207] | 88.7%
CN1CCN(C)C(COc2nccc(C(F)(F)F)n2)C1 (stereo not drawn) [CBK113298] | 95.2%
COc1cc(C)c(Nc2cc(-c3ccc(CC(C)C)cc3)ncn2)cc1OC [CBK090785] | 91.2%
CC(C)OC(=O)N1CCC(N(C)Cc2ccc(-c3ccc(S(C)(=O)=O)cc3)cn2)CC1 [CBK165581T] | 90.8%
CNc1nc(NC(C#N)c2ccccc2)ncc1N (stereo not drawn) [CBK174783] | 107%
COc1ccnc(N2CCN(C(=O)c3cnn(C)c3)CC2)n1 [CBK306125] | 90.7%
O=S1(=O)CCCN1c1ccc2[nH]ncc2c1 [CBK010263] | 102%
